# Measured values published in patent US9078442B2, “Herbicidally and fungicidally active 3-phenylisoxazoline-5-carboxamides and 3-phenylisoxazoline-5-thioamides” (BAYER INTELLECTUAL PROPERTY GMBH, priority 2011, dated 2015).
# Tests used:
# [1] = tested on: Mycosphaerella graminicola; assay: In vivo test Mycosphaerella graminicola (wheat); conditions: Mycosphaerella graminicola on wheat, evaluation 21-28 days after inoculation
# Method: Wheat plants (cultivar: (Scipion) are cultivated in 50/50 peat pozzolan substrate at 12° C. and sprayed at the 1-leaf stage with the active compound preparation as given in Example A. After 24 hours, the plants are sprayed with a spore suspension of Mycosphaerella graminicola (500 000 spores/ml).
# Peronospora parasitica = assay: In vivo test Peronospora parasitica (downy mildew on cabbage), protective; conditions: evaluation 5 days after infection
# Method: In vivo test Peronospora parasitica (downy mildew on cabbage) To prepare an appropriate active compound formulation, the active compound is mixed with acetone/Tween/DMSO and the mixture is diluted with water to the desired concentration. Cabbage plants are cultivated in 50/50 peat/pozzolan soil in small pots at 18-20° C. and sprayed at the cotyledon stage at the respective stated application rates to test for protective activity. Control plants were treated in the same manner, but using an aqueous solution without any active compounds. 24 hours after the spraying, the plants were sprayed with a spore suspension of Peronospora parasitica (50 000 spores/ml). The plants were placed in a cabin at 20° C. in a humid atmosphere for 5 days.
# Alternaria brassicae = assay: In vivo test Alternaria brassicae (salad radish); design: concentration or dose not given beside the values; conditions: Alternaria brassicae on salad radish, application rate not given, evaluation 6-7 days after inoculation
# Method: Salad radish (cultivar Pernot) are cultivated in 50/50 peat pozzolan substrate at 18-20° C. and sprayed at the cotyledon stage with the active compound preparation given above. After 24 hours, the plants are sprayed with a spore suspension of Alternaria brassicae (40 000 spores/cm3). The inoculated plants are placed at 18° C. and in a humid atmosphere for 6-7 days. […] At an application rate of g/ha, the following efficacies are found for the following compounds.
# Botrytis cinerea = assay: In vivo test Botrytis cinerea (gray mold on cucumbers); conditions: Botrytis cinerea on cucumber, evaluation 5-7 days after infection
# Method: Cucumber plants (Vert petit de Paris) are cultivated in 50/50 peat pozzolan substrate at 20-25° C. and sprayed at the Z16 stage with the active compound preparation given in Example 1. After 24 hours, the upper sides of the leaves of the plants are sprayed with a spore suspension of Botrytis cinerea (150 000 spores/ml). The spores of a 15-day old culture are collected and suspended in a nutrient solution consisting of • 20 g/l of gelatin; • 50 g/l of D-fructose; • 2 g/l of NH4NO3; • 1 g/L of KH2PO4. The inoculated cucumber plants are placed at 15-11° C. (day/night) and at 80% relative atmospheric humidity for 5-7 days.
Compound,Activity [%] (efficacy) ([1]; application rate 500 g/ha),Activity [%] (efficacy) (Peronospora parasitica; application rate 500 g/ha),further results
CC1(C(=O)NCC2CCCO2)CC(c2cc(Cl)cc(Cl)c2)=NO1 (mixture of isomers) [Example 6.470],100%,71%,–
"C#CC(C)NC(=O)C1(C)CC(c2cc(Cl)cc(Cl)c2)=NO1 (single isomer, unassigned) [Example 6.216]",–,75%,Activity [%] (efficacy) (Alternaria brassicae): 82%
CCn1cc(NC(=O)C2(C)CC(c3cc(Cl)cc(Cl)c3)=NO2)c(C)n1 (centres unmarked) [Example 1.017],88%,–,–
COC(=O)Cc1cccc(NC(=O)C2(C)CC(c3cc(Cl)cc(Cl)c3)=NO2)c1 (centres unmarked) [Example 1.035],91%,–,Activity [%] (efficacy) (Botrytis cinerea; application rate 500 g/ha): 89%
CC1(C(=O)Nc2cccc(CC(=O)O)c2)CC(c2cc(Cl)cc(Cl)c2)=NO1 (centres unmarked) [Example 1.036],73%,–,–
CCOC(=O)Cc1ccc(NC(=O)C2(C)CC(c3cc(Cl)cc(Cl)c3)=NO2)cc1 (centres unmarked) [Example 1.057],91%,–,–
COC(=O)c1ccc(NC(=O)C2(C)CC(c3cc(Cl)cc(Cl)c3)=NO2)cc1 (centres unmarked) [Example 1.060],–,–,Activity [%] (efficacy) (Botrytis cinerea; application rate 500 g/ha): 100%
CC1(C(=O)Nc2ccc(C(=O)O)cc2)CC(c2cc(Cl)cc(Cl)c2)=NO1 (centres unmarked) [Example 1.064],75%,95%,Activity [%] (efficacy) (Botrytis cinerea; application rate 500 g/ha): 100%
Cc1nn(C)c(C)c1CNC(=O)C1(C)CC(c2cc(Cl)cc(Cl)c2)=NO1 (centres unmarked) [Example 1.108],–,100%,–
Cc1nn(C)cc1CNC(=O)C1(C)CC(c2cc(Cl)cc(Cl)c2)=NO1 (centres unmarked) [Example 1.116],–,100%,–
Cc1cc(CNC(=O)C2(C)CC(c3cc(F)cc(F)c3)=NO2)n(C)n1 (centres unmarked) [Example 1.120],–,99%,–
Cc1c(CNC(=O)C2(C)CC(c3cc(Cl)cc(Cl)c3)=NO2)cnn1C (centres unmarked) [Example 1.138],75%,98%,–
CCn1cc(CNC(=O)C2(C)CC(c3cc(C)cc(Cl)c3)=NO2)c(C)n1 (centres unmarked) [Example 1.181],85%,100%,Activity [%] (efficacy) (Botrytis cinerea; application rate 500 g/ha): 70%
CCn1cc(CNC(=O)C2(C)CC(c3cc(C(F)(F)F)cc(C(F)(F)F)c3)=NO2)c(C)n1 (centres unmarked) [Example 1.224],95%,99%,–
Cn1nccc1CNC(=O)C1(C)CC(c2cc(Cl)cc(Cl)c2)=NO1 (centres unmarked) [Example 1.291],–,–,Activity [%] (efficacy) (Peronospora parasitica; application rate 1200 g/ha): 88%
CC1(C(=O)NCc2ccccc2C(=O)O)CC(c2cc(Cl)cc(Cl)c2)=NO1 (centres unmarked) [Example 1.315],100%,–,–
CCn1cc(CNC(=O)C2(C)CC(c3cc(Cl)cc(Cl)c3)=NO2)c(Cl)n1 (centres unmarked) [Example 1.339],85%,100%,–
CC(C)n1cc(CNC(=O)C2(C)CC(c3cc(F)cc(F)c3)=NO2)c(Cl)n1 (centres unmarked) [Example 1.340],88%,97%,–
CC(C)n1cc(CNC(=O)C2(C)CC(c3cccc(F)c3)=NO2)c(Cl)n1 (centres unmarked) [Example 1.341],–,95%,–

Compound,Activity [%] (efficacy) ([1]; application rate 500 g/ha),Activity [%] (efficacy) (Peronospora parasitica; application rate 500 g/ha),further results
CC(C)n1cc(CNC(=O)C2(C)CC(c3cc(Cl)cc(Cl)c3)=NO2)c(Cl)n1 (centres unmarked) [Example 1.343],92%,99%,–
CC1(C(=O)NCc2nc(C3CC3)no2)CC(c2cc(Cl)cc(Cl)c2)=NO1 (centres unmarked) [Example 1.352],–,83%,–
Cc1n[nH]cc1CNC(=O)C1(C)CC(c2cc(F)cc(F)c2)=NO1 (centres unmarked) [Example 1.363],–,71%,–
CC1(C(=O)NCc2nc(C(F)(F)F)cs2)CC(c2cc(Cl)cc(Cl)c2)=NO1 (centres unmarked) [Example 1.379],–,96%,–
Cc1cc(CNC(=O)C2(C)CC(c3cc(Cl)cc(Cl)c3)=NO2)no1 (centres unmarked) [Example 1.421],87%,–,–
CC1(C(=O)NCc2ccncc2)CC(c2cc(Cl)cc(Cl)c2)=NO1 (centres unmarked) [Example 1.458],–,–,Activity [%] (efficacy) (Peronospora parasitica; application rate 1200 g/ha): 81%
CC1(C(=O)NCc2ncccn2)CC(c2cc(Cl)cc(Cl)c2)=NO1 (centres unmarked) [Example 1.459],100%,–,–
CC1(C(=O)NCCc2ccccn2)CC(c2cc(Cl)cc(Cl)c2)=NO1 (centres unmarked) [Example 1.676],–,85%,–
CC1(C(=O)NCCCn2cccn2)CC(c2cc(Cl)cc(Cl)c2)=NO1 (centres unmarked) [Example 1.903],97%,85%,–
CCC1(C(=O)Nc2cc(C)nn2C)CC(c2cc(Cl)cc(Cl)c2)=NO1 (centres unmarked) [Example 2.003],–,–,Activity [%] (efficacy) (Peronospora parasitica; application rate 1200 g/ha): 90%
CCn1cc(CNC(=O)C2(CC)CC(c3cc(Cl)cc(Cl)c3)=NO2)c(C)n1 (centres unmarked) [Example 2.163],96%,100%,–
CCCn1cc(CNC(=O)C2(CC)CC(c3cc(Cl)cc(Cl)c3)=NO2)c(C)n1 (centres unmarked) [Example 2.257],79%,99%,–
CCn1cc(CNC(=O)C2(C(F)(F)F)CC(c3cc(Cl)cc(Cl)c3)=NO2)c(C)n1 (centres unmarked) [Example 3.161],–,100%,–
CCn1cc(CNC(=O)C2(C(F)(F)F)CC(c3ccc(F)c(Cl)c3)=NO2)c(C)n1 (centres unmarked) [Example 3.170],–,94%,–
CCn1cc(CNC(=O)C2(COC)CC(c3cc(Cl)cc(Cl)c3)=NO2)c(C)n1 (centres unmarked) [Example 5.029],–,87%,–
CNC(=O)C1(C)CC(c2cc(Br)cc(Br)c2)=NO1 (centres unmarked) [Example 6.022],98%,–,–
CC1(C(=O)NC2CC2)CC(c2cc(Cl)cc(Cl)c2)=NO1 (centres unmarked) [Example 6.054],100%,–,Activity [%] (efficacy) (Alternaria brassicae): 94%
CC1(C(=O)NC2CC2)CC(c2cc(Cl)cc(Br)c2)=NO1 (centres unmarked) [Example 6.064],100%,–,Activity [%] (efficacy) (Alternaria brassicae): 91%
Cc1cc(Cl)cc(C2=NOC(C)(C(=O)NC3CC3)C2)c1 (centres unmarked) [Example 6.072],98%,–,–

Compound,Activity [%] (efficacy) ([1]; application rate 500 g/ha),Activity [%] (efficacy) (Peronospora parasitica; application rate 500 g/ha),further results
COCC#CC(C)(C)NC(=O)C1(C)CC(c2cc(Cl)cc(Cl)c2)=NO1 (centres unmarked) [Example 6.115],–,100%,–
CC(C)NC(=O)C1(C)CC(c2cc(Br)cc(C(F)(F)F)c2)=NO1 (centres unmarked) [Example 6.184],100%,–,–
CC(C)NC(=O)C1(C)CC(c2cc(F)cc(Cl)c2)=NO1 (centres unmarked) [Example 6.190],–,–,Activity [%] (efficacy) (Peronospora parasitica; application rate 1200 g/ha): 100%
COc1cc(Cl)cc(C2=NOC(C)(C(=O)NC(C)C)C2)c1 (centres unmarked) [Example 6.191],–,–,Activity [%] (efficacy) (Botrytis cinerea; application rate 1200 g/ha): 100%
Cc1cc(Cl)cc(C2=NOC(C)(C(=O)NC(C)C)C2)c1 (centres unmarked) [Example 6.192],97%,96%,–
CC1(C(=O)NCC(F)(F)F)CC(c2cc(Cl)cc(Cl)c2)=NO1 (centres unmarked) [Example 6.377],100%,–,Activity [%] (efficacy) (Alternaria brassicae): 77%
Cc1cc(Cl)cc(C2=NOC(C)(C(=O)NCC(F)(F)F)C2)c1 (centres unmarked) [Example 6.386],100%,–,–
CCNC(=O)C1(C)CC(c2cc(C)cc(Cl)c2)=NO1 (centres unmarked) [Example 6.412],100%,–,–
CC1(C(=O)NCC2CCCCC2)CC(c2cc(Cl)cc(Cl)c2)=NO1 (centres unmarked) [Example 6.430],81%,–,–
CCOP(=O)(CNC(=O)C1(C)CC(c2cc(Cl)cc(Cl)c2)=NO1)OCC (centres unmarked) [Example 6.433],–,100%,–
CCOC(=O)C(C)CNC(=O)C1(C)CC(c2cc(Cl)cc(Cl)c2)=NO1 (centres unmarked) [Example 6.480],88%,–,–
CCOC(=O)CCNC(=O)C1(C)CC(c2cc(Cl)cc(Cl)c2)=NO1 (centres unmarked) [Example 6.566],98%,–,–
CC(C)(C)OC(=O)CCNC(=O)C1(C)CC(c2cc(Cl)cc(Cl)c2)=NO1 (centres unmarked) [Example 6.656],98%,92%,–
CCOCCCNC(=O)C1(C)CC(c2cc(Cl)cc(Cl)c2)=NO1 (centres unmarked) [Example 6.681],–,–,Activity [%] (efficacy) (Peronospora parasitica; application rate 1200 g/ha): 97%
CCC1(C(=O)NC(C)C)CC(c2cc(Cl)cc(Cl)c2)=NO1 (centres unmarked) [Example 7.161],–,–,Activity [%] (efficacy) ([1]; application rate 1200 g/ha): 85%; Activity [%] (efficacy) (Botrytis cinerea; application rate 1200 g/ha): 100%; Activity [%] (efficacy) (Peronospora parasitica; application rate 1200 g/ha): 97%
CCC1(C(=O)NCC(F)(F)F)CC(c2cc(Cl)cc(Cl)c2)=NO1 (centres unmarked) [Example 7.359],100%,–,Activity [%] (efficacy) (Alternaria brassicae): 86%
CNC(=O)C1(C(F)(F)F)CC(c2cc(Cl)cc(Cl)c2)=NO1 (centres unmarked) [Example 8.025],–,100%,–
O=C(NC1CC1)C1(C(F)(F)F)CC(c2cc(Cl)cc(Cl)c2)=NO1 (centres unmarked) [Example 8.052],–,–,Activity [%] (efficacy) (Peronospora parasitica; application rate 1200 g/ha): 100%
CC(C)NC(=O)C1(C2CC2)CC(c2cc(Cl)cc(Cl)c2)=NO1 (centres unmarked) [Example 10.032],–,–,Activity [%] (efficacy) (Peronospora parasitica; application rate 1200 g/ha): 96%
